The record followed here is patent US12269793B2, “Affinity illudofulvene conjugates” (AF Chemicals, LLC, priority 2019, dated 2025).

Where two headings read alike, the source gives them in different places. *1 amine or outer side, *2 acyl side, *3 side chain or, on linkers, in order; H or OH if unused. Where a SMILES comes first, the peptide text is derived from it. [ ]: non-standard residue; d: D form. The star is where a group is joined. X2 = CC1=C(CCCN*)C2=C(C)C3(CC3)[C@@](C)(O)C(=O)C2=C1; Dolaproine = CO[C@@H]([C@@H]1CCCN1)[C@@H](C)C(=O)O; Dil = CC[C@H](C)[C@H](NC)[C@@H](CC(=O)O)OC; X1 = C[C@@H](N*)[C@@H](O)c1ccccc1; NMeV = CN[C@H](C(=O)O)C(C)C; Morpholide = C1CN(*)CCO1; CO = O=C([*:1])[*:2]

One data set concerns MCF7 (ER positive). Type of data set: cell-based. The conditions noted are these: MCF7 (ER positive) versus HT29 (ER negative), result in words. From the text: (§1) MCF7 over express estrogen alpha-receptors.
(§2) MCF7 cells over express estrogen alpha-receptors.

The test system of a further data set is NCI 60 cell line panel. Description: NCI DTP 60 cell line screen assay. The conditions noted are these: for Activity Value: NCI 60 cell line screen, negative = lyse tumor cells, zero = no growth, positive = slower growth; for GI50: read-out: Mean GI50 inhibition. An excerpt:
An ADC is engulfed by a tumor cell, transported to the endosomes (pH<6.0) and then into the lysozomes (pH<4). […] 4). Cancer cells can become resistant to various toxins and drugs through the development of what is termed multi-drug resistance. This process is known to occur through several different mechanisms.

In data set [1] the test system is 8392B Nontarget Cell Line (hematopoietic). The conditions noted are these: read-out: Mean IC50 value, 2 hr exposure, ± SD, N = 3 unless otherwise indicated.
Data set [2] has the same test system. The conditions noted are these: read-out: Mean IC50 value, 48 hr exposure, ± SD, N = 3 unless otherwise indicated.
Data set [3] relates to MV522 Target Cell Line (lung-derived adenocarcinoma).
Data set [4] deals with 8392B Nontarget Cell Line (hematopoietic). Description: cells. The conditions noted are these: 2 h.
Data set [5] deals with MV522 Target Cell Line (lung-derived adenocarcinoma). Description: cells. The conditions noted are these: MV522, 2 h, read-out: Mean IC50 value.
A further data set can be described thus: in vitro. The conditions noted are these: human.
Text: as §1, §2

In data set [6] the test system is MV522 Target Cell Line (lung-derived adenocarcinoma). In words: cells. The conditions noted are these: MV522, 48 h, read-out: Mean IC50 value.
In data set [7] the test system is 8392B Nontarget Cell Line (hematopoietic). Description: cells. The conditions noted are these: 48 h, read-out: Mean IC50 value.
The mark [8] stands for this setting: read-out: Mean IC50 value, 8392B Nontarget Cell Line, 2 hr exposure, ± SD, N = 3 unless otherwise indicated.

For `CC1=C2C(=CC(C)(C)[C@@H]2O)C(=O)[C@](C)(O)C12CC2` [Illudin M, reference compound], the “preferential killing of ER positive cells” value with MCF7 (ER positive) is “killed both ER negative and ER positive cells to the same extent”.
As to `CC1=C2C(=C[C@@](C)(C=O)[C@@H]2O)C(=O)[C@](C)(O)C12CC2` [Analog 383], in the data set on NCI 60 cell line panel, the “Activity Value” was −1 and the “MDR Activity” value is “Yes”.
`CC1=C2C(=CC(C)(CO[Si](C)(C)C(C)(C)C)C2OC(=O)c2ccc(S(=O)(=O)F)cc2)C(=O)C(C)(O)C12CC2` (centres unmarked) [Analog 219]: the 50% inhibitory concentration (IC50) in data set [1] and in data set [2] was above 52 µM each time.
For the compound `CC1=C(CSc2nc3ccccc3s2)C2=C(C)C3(CC3)[C@@](C)(O)C(=O)C2=C1` [Analog 147], the 50% inhibitory concentration (IC50) (commonly the concentration that gives 50% inhibition) in data set [1] is above 76 µM.
As to `CC[C@H](C)[C@@H]([C@@H](CC(=O)N1CCC[C@H]1[C@H](OC)[C@@H](C)C(=O)N[C@H](C)[C@@H](O)c1ccccc1)OC)N(C)C(=O)[C@@H](NC(=O)[C@@H](NC)C(C)C)C(C)C` [MMAE, monomethyl auristatin E] (H-[NMeV]V[Dil][Dolaproine]-X1), in the data set on NCI 60 cell line panel, the “Activity Value” is listed as “+21” and the “MDR Activity” value was “No”. Moreover, the “MDR Activity” value with NCI 60 cell line panel (listed as MMA) was “not MDR active”.
With `COc1cc2cc(c1Cl)N(C)C(=O)C[C@H](OC(=O)[C@H](C)N(C)C(C)=O)[C@]1(C)O[C@H]1[C@H](C)[C@@H]1C[C@@](O)(NC(=O)O1)[C@H](OC)/C=C/C=C(\C)C2` [Maytansine], in the data set on NCI 60 cell line panel (60 cell), the concentration for 50% growth inhibition (GI50) (commonly the concentration that inhibits growth by half) amounted to 0.019 µM. The “Mean LD50 cytotoxic” value with NCI 60 cell line panel (NCI DTP 60 cell line, mean) is reported as 49,200 nM.
As for `CC[C@H](C)[C@@H]([C@@H](CC(=O)N1CCC[C@H]1[C@H](OC)[C@@H](C)C(=O)N[C@@H](Cc1ccccc1)c1nccs1)OC)N(C)C(=O)[C@@H](NC(=O)[C@H](C(C)C)N(C)C)C(C)C` [Dolstatin-10], in the data set on NCI 60 cell line panel (NCI DTP 60 cell line, mean), the “Mean LD50 cytotoxic” value was >50,000 nM, the “Mean TGI cytostatic” value is on record as 2,680 nM and the 50% growth inhibitory concentration (GI50) worked out at 0.017 µM.
As to `C=C1C[C@H]2C=Nc3cc(OCCCOc4cc5c(cc4OC)C(=O)N4CC(=C)C[C@H]4C=N5)c(OC)cc3C(=O)N2C1` [Pyrrolo-benzodiazepines], the “Mean LD50 cytotoxic” value in the data set with NCI 60 cell line panel (NCI DTP 60 cell line, mean) is >23,000 nM.
Regarding `CCCCCCCC/C=C/CCCCCCCC(=O)OCCCC1=C(C)C=C2C(=O)[C@](C)(O)C3(CC3)C(C)=C21` [Analog 227], the concentration for half-maximal inhibition (IC50) in data set [1] is above 57 µM.
In the case of `CC1=CC2=C(C)C3(CC3)C(C)(O)C(=NO)C2=C1` (centres unmarked) [Analog 224], the 50% inhibitory concentration (IC50) is above 200 µM in data set [1] and above 130 µM in [2]. Further, the “toxicity as monotherapeutic agent” value in data set [3] (MV522 target and 8392B nontarget cell line, result in words) is recorded as “minimal toxicity”.
`CC1=C(CCC(=O)Oc2ccc3c(c2)CCC2C3CC[C@]3(C)C(O)CCC23)C2=C(C)C3(CC3)[C@@](C)(O)C(=O)C2=C1` (some centres unmarked) [Analog 108]: the IC50 in data set [4] (read-out: Mean IC50 value) was above 55 µM; in [5], 12.3 ± 2.3 µM; in “in vitro” it was above 55 µM; in data set [6], 0.52 ± 0.05 µM.
For `CC1=C(CCC(=O)Oc2ccc3c(c2)CCC2C3CC[C@]3(C)C(=O)CCC23)C2=C(C)C3(CC3)[C@@](C)(O)C(=O)C2=C1` (some centres unmarked) [Analog 110], the IC50 in data set [4] (read-out: Mean IC50 value) was above 55 µM; in [7], 25.3 ± 2.1 µM; in data set [5], above 55 µM; in the data set “in vitro”, above 19 µM. Further, the “preferential killing of ER positive cells” value in the data set with MCF7 (ER positive) is listed as “preferentially killed”.
Turning to `CC(=O)O[C@@H]1C2=C(C)C3(CC3)[C@@](C)(O)C(=O)C2=C[C@@]1(C)CO` [Analog 371], in the data set on NCI 60 cell line panel, the “Activity Value” is on record as −18 and the “MDR Activity” value is “Yes”.
Take `CC(=O)ON(C(C)=O)c1ccc(C(=O)OC[C@]2(C)C=C3C(=O)[C@](C)(O)C4(CC4)C(C)=C3C2OC(=O)c2ccc(N(OC(C)=O)C(C)=O)cc2)cc1` (some centres unmarked) [Analog 140]: in data set [2], the IC50 was above 14 µM.
As for `COC(=O)C1=C(C(=O)OC)C23C=C(C)C1C2=C(C)C1(CC1)[C@@](C)(O)C3=O` (some centres unmarked) [Analog 142], in the data set with NCI 60 cell line panel, the “Activity Value” is −5 and the “MDR Activity” value is “Yes”.
Consider `CC1=C(CO)C2=C(C)C3(CC3)[C@@](C)(O)C(=O)C2=C1` [Analog 002], for which the “MDR Activity” value in the data set on NCI 60 cell line panel is reported as “Yes”. In addition, the Cytotoxicity result with NCI 60 cell line panel (ability to actually kill tumor cells versus only inhibiting growth) was “Yes”.
As for `CC1=C(CSC[C@@H](C)C(=O)N2CCC[C@H]2C(=O)O)C2=C(C)C3(CC3)[C@@](C)(O)C(=O)C2=C1` [Analog 098], the IC50 is above 65 µM in [4] (setting [8]), 11.7 ± 1.8 µM in data set [7], 18.8 ± 2.5 µM in data set [5] and 4.6 ± 0.25 µM in data set [6].
Take `CC1=C2C(O)C(C)(C)C3CC23C(=O)C(C)(O)C12CC2` (centres unmarked) [Analog 252]: the 50% inhibitory concentration (IC50) in data set [1] and in [2] was above 380 µM throughout.
`C/C(=C\c1csc(C)n1)[C@@H]1C[C@@H]2O[C@@H]2CCC[C@H](C)[C@H](O)[C@@H](C)C(=O)C(C)(C)[C@@H](O)CC(=O)O1` [Epothilone A]: the “Activity Value” with NCI 60 cell line panel is “+31”.
Regarding `CC1=CC2=C(C)C3(CC3)[C@@](C)(O)C(O)C2=C1` (some centres unmarked) [Analog 129], the IC50 is above 136 µM in [4] (setting [8]), 39.4 ± 9.2 µM in data set [7], above 136 µM in data set [5] and 19.7 ± 1.9 µM in data set [6].
Turning to `COc1cc2cc(c1Cl)N(C)C(=O)C[C@H](OC(=O)[C@H](C)N(C)C(=O)CCS)[C@]1(C)O[C@H]1[C@H](C)[C@@H]1C[C@@](O)(NC(=O)O1)[C@H](OC)/C=C/C=C(\C)C2` [DM1], the “Activity Value” in the data set with NCI 60 cell line panel was “+8”.
Consider `CC1=C(CCC(C)O)C2=C(C)C3(CC3)[C@@](C)(O)C(=O)C2=C1` (some centres unmarked) [Analog 128], for which the IC50 was above 35 µM in data set [4] (setting [8]), 0.8 ± 0.07 µM in data set [7], 0.84 ± 0.23 µM in data set [5] and 0.37 ± 0.05 µM in data set [6].
For the compound `CO[C@@H]1[C@H](O)CC[C@]2(CO2)[C@H]1[C@@]1(C)O[C@@H]1CC=C(C)C` [Fumagillol], in the data set with NCI 60 cell line panel (NCI DTP 60 cell line, mean), the “Mean LD50 cytotoxic” value is listed as >50,000 nM.
As to `CCCCCCCC/C=C/CCCCCCCC(=O)OCC1=C(C)C=C2C(=O)[C@](C)(O)C3(CC3)C(C)=C21` [Analog 226], the half-maximal inhibitory concentration (IC50) in [1] and in data set [2] was above 59 µM throughout.
As to `CC1=C(CNO)C2=C(C)C3(CC3)[C@@](C)(O)C(=O)C2=C1` [Analog 394], in the data set with NCI 60 cell line panel, the “Activity Value” is on record as −2 and the “MDR Activity” value is listed as “Yes”.
The corresponding values for `CC(=O)OC[C@]1(C)C=C2C(=O)[C@](C)(O)C3(CC3)C(C)=C2[C@H]1OC(=O)N(C)CCN(C)C(=O)OC(C)(C)C` [Analog 334] are −11 and “Yes”.
Consider `CC1=C(CCCNC(=O)[C@H](CC(C)C)NC(=O)[C@H](CCC(N)=O)NC(=O)[C@H](CC(C)C)NC(=O)[C@H](CCCCN)NC(=O)[C@H](CO)NC(=O)[C@H](CO)NC(=O)[C@H](Cc2c[nH]cn2)NC(=O)N2CCOCC2)C2=C(C)C3(CC3)[C@@](C)(O)C(=O)C2=C1` [Analog 221] ({Morpholide-CO}-HSSKLQL-X2), for which the 50% inhibitory concentration (IC50) in data set [1] was above 21 µM; in data set [2] it was above 21 µM; in data set [3] (read-out: Mean IC50 value, MV522 Target Cell Line, 2 hr exposure, ± SD, N = 3 unless otherwise indicated) it was above 21 µM.
On to `CC1=C(CSc2nnnn2-c2ccc(O)cc2)C2=C(C)C3(CC3)[C@@](C)(O)C(=O)C2=C1` [Analog 154], for which, in data set [1], the IC50 was above 70 µM.
